From ChEMBL document CHEMBL1909046, “DrugMatrix in vitro pharmacology data”

Target: Beta-2 adrenergic receptor (Homo sapiens, UniProt P07550)
Assay: DRUGMATRIX: Adrenergic beta2 radioligand binding (ligand: [3H] CGP-12177)
Format: cell membranes, CHO, Membrane
Conditions: cho; Not Active = under 50% inhibition at 10 µM

Compound | IC50 | Ki
COc1ccc2cc(CCC(C)=O)ccc2c1 [NABUMETONE] | Not Active | –
O=C(O)c1cccnc1 [NIACIN] | Not Active | –
CNC(=C[N+](=O)[O-])NCCSCc1csc(CN(C)C)n1 [NIZATIDINE] | Not Active | –
C[C@]12C/C(=C/O)C(=O)C[C@@H]1CC[C@@H]1[C@@H]2CC[C@@]2(C)[C@H]1CC[C@]2(C)O [OXYMETHOLONE] | Not Active | –
CC(C)(CO)C(O)C(=O)NCCCO (stereo unspecified) [PANTHENOL] | Not Active | –
COc1ccc(Cc2nccc3cc(OC)c(OC)cc23)cc1OC [PAPAVERINE] | Not Active | –
OCCN1CCN(CCCN2c3ccccc3Sc3ccc(Cl)cc32)CC1 [PERPHENAZINE] | Not Active | –
CCCCC1C(=O)N(c2ccccc2)N(c2ccccc2)C1=O [PHENYLBUTAZONE] | Not Active | –
Cc1cccc(Nc2cc(Cl)nc(SCC(=O)O)n2)c1C [PIRINIXIC ACID] | Not Active | –
CC[C@H](C)C(=O)O[C@H]1C[C@H](O)C=C2C=C[C@H](C)[C@H](CC[C@@H](O)C[C@@H](O)CC(=O)O)[C@H]21 [PRAVASTATIN] | Not Active | –
CC(C)(Sc1cc(C(C)(C)C)c(O)c(C(C)(C)C)c1)Sc1cc(C(C)(C)C)c(O)c(C(C)(C)C)c1 [PROBUCOL] | Not Active | –
COBALT(II) ACETYLACETONATE | Not Active | Not Active
INSULIN HUMAN | Not Active | Not Active
POLYVINYL ALCOHOL | Not Active | Not Active

Target: Beta-3 adrenergic receptor (Homo sapiens, UniProt P13945)
Assay: DRUGMATRIX: Adrenergic beta3 radioligand binding (ligand: [125I] Cyanopindolol)
Format: cell membranes, HEK293, Membrane
Conditions: hek293; Not Active = under 50% inhibition at 10 µM

Chain of Beta-3 adrenergic receptor (P13945 whole entry): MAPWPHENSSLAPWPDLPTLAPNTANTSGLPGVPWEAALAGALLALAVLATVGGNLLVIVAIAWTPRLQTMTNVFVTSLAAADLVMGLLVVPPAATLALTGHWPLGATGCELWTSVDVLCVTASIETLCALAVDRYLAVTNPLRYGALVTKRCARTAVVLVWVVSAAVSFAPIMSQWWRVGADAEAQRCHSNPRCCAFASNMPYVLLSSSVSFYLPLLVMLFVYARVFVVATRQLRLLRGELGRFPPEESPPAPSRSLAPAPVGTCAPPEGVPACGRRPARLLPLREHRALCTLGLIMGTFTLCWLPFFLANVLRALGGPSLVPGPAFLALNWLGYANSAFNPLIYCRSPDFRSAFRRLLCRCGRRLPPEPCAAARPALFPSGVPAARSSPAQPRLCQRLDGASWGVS

Compound | IC50 | Ki
COc1ccc2cc(CCC(C)=O)ccc2c1 [NABUMETONE] | Not Active | –
O=C(O)c1cccnc1 [NIACIN] | Not Active | –
CNC(=C[N+](=O)[O-])NCCSCc1csc(CN(C)C)n1 [NIZATIDINE] | Not Active | –
C[C@]12C/C(=C/O)C(=O)C[C@@H]1CC[C@@H]1[C@@H]2CC[C@@]2(C)[C@H]1CC[C@]2(C)O [OXYMETHOLONE] | Not Active | –
CC(C)(CO)C(O)C(=O)NCCCO (stereo unspecified) [PANTHENOL] | Not Active | –
COc1ccc(Cc2nccc3cc(OC)c(OC)cc23)cc1OC [PAPAVERINE] | Not Active | –
OCCN1CCN(CCCN2c3ccccc3Sc3ccc(Cl)cc32)CC1 [PERPHENAZINE] | Not Active | –
CCCCC1C(=O)N(c2ccccc2)N(c2ccccc2)C1=O [PHENYLBUTAZONE] | Not Active | –
Cc1cccc(Nc2cc(Cl)nc(SCC(=O)O)n2)c1C [PIRINIXIC ACID] | Not Active | –
CC[C@H](C)C(=O)O[C@H]1C[C@H](O)C=C2C=C[C@H](C)[C@H](CC[C@@H](O)C[C@@H](O)CC(=O)O)[C@H]21 [PRAVASTATIN] | Not Active | –
CC(C)(Sc1cc(C(C)(C)C)c(O)c(C(C)(C)C)c1)Sc1cc(C(C)(C)C)c(O)c(C(C)(C)C)c1 [PROBUCOL] | Not Active | –
COBALT(II) ACETYLACETONATE | Not Active | Not Active
INSULIN HUMAN | Not Active | Not Active
POLYVINYL ALCOHOL | Not Active | Not Active

Tested on: not listed separately
Assay: DRUGMATRIX: ATPase, Na+/K+ enzyme inhibition (substrate: ATP)
Format: tissue-based, Sus scrofa, Heart
Conditions: Not Active = under 50% inhibition at 10 µM

Compound | IC50 | Ki
COc1ccc2cc(CCC(C)=O)ccc2c1 [NABUMETONE] | Not Active | Not Active
O=C(O)c1cccnc1 [NIACIN] | Not Active | Not Active
CNC(=C[N+](=O)[O-])NCCSCc1csc(CN(C)C)n1 [NIZATIDINE] | Not Active | Not Active
C[C@]12C/C(=C/O)C(=O)C[C@@H]1CC[C@@H]1[C@@H]2CC[C@@]2(C)[C@H]1CC[C@]2(C)O [OXYMETHOLONE] | Not Active | Not Active
CC(C)(CO)C(O)C(=O)NCCCO (stereo unspecified) [PANTHENOL] | Not Active | Not Active
COc1ccc(Cc2nccc3cc(OC)c(OC)cc23)cc1OC [PAPAVERINE] | Not Active | Not Active
OCCN1CCN(CCCN2c3ccccc3Sc3ccc(Cl)cc32)CC1 [PERPHENAZINE] | Not Active | Not Active
CCCCC1C(=O)N(c2ccccc2)N(c2ccccc2)C1=O [PHENYLBUTAZONE] | Not Active | Not Active
Cc1cccc(Nc2cc(Cl)nc(SCC(=O)O)n2)c1C [PIRINIXIC ACID] | Not Active | Not Active
CC[C@H](C)C(=O)O[C@H]1C[C@H](O)C=C2C=C[C@H](C)[C@H](CC[C@@H](O)C[C@@H](O)CC(=O)O)[C@H]21 [PRAVASTATIN] | Not Active | Not Active
CC(C)(Sc1cc(C(C)(C)C)c(O)c(C(C)(C)C)c1)Sc1cc(C(C)(C)C)c(O)c(C(C)(C)C)c1 [PROBUCOL] | Not Active | Not Active
COBALT(II) ACETYLACETONATE | Not Active | Not Active
INSULIN HUMAN | Not Active | Not Active
POLYVINYL ALCOHOL | Not Active | Not Active

Target: Cannabinoid receptor 1 (Homo sapiens, UniProt P21554); note: in other assays of this panel Not Active means under 50% inhibition at 10 µM
Assay: not given
Format: cell membranes, Membrane
Conditions: chem-1

Chain of Cannabinoid receptor 1 (P21554 whole entry): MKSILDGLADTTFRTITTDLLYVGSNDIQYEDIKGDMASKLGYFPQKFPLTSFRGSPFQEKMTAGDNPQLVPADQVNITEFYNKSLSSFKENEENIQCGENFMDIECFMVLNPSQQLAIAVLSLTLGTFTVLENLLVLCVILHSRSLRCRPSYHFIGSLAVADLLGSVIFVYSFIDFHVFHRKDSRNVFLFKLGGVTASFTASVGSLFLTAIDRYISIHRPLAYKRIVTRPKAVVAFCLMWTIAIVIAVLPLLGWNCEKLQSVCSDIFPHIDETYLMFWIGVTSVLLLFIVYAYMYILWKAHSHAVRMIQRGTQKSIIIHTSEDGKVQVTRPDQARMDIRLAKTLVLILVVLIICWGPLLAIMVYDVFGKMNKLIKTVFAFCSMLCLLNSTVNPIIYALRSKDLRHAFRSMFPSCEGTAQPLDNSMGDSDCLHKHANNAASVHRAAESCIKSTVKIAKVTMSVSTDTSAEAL

Compound | IC50 | Ki
COc1ccc2cc(CCC(C)=O)ccc2c1 [NABUMETONE] | Not Active | –
O=C(O)c1cccnc1 [NIACIN] | Not Active | –
CNC(=C[N+](=O)[O-])NCCSCc1csc(CN(C)C)n1 [NIZATIDINE] | Not Active | –
C[C@]12C/C(=C/O)C(=O)C[C@@H]1CC[C@@H]1[C@@H]2CC[C@@]2(C)[C@H]1CC[C@]2(C)O [OXYMETHOLONE] | Not Active | –
CC(C)(CO)C(O)C(=O)NCCCO (stereo unspecified) [PANTHENOL] | Not Active | –
COc1ccc(Cc2nccc3cc(OC)c(OC)cc23)cc1OC [PAPAVERINE] | Not Active | –
OCCN1CCN(CCCN2c3ccccc3Sc3ccc(Cl)cc32)CC1 [PERPHENAZINE] | Not Active | –
CCCCC1C(=O)N(c2ccccc2)N(c2ccccc2)C1=O [PHENYLBUTAZONE] | Not Active | –
Cc1cccc(Nc2cc(Cl)nc(SCC(=O)O)n2)c1C [PIRINIXIC ACID] | Not Active | –
CC[C@H](C)C(=O)O[C@H]1C[C@H](O)C=C2C=C[C@H](C)[C@H](CC[C@@H](O)C[C@@H](O)CC(=O)O)[C@H]21 [PRAVASTATIN] | Not Active | –
CC(C)(Sc1cc(C(C)(C)C)c(O)c(C(C)(C)C)c1)Sc1cc(C(C)(C)C)c(O)c(C(C)(C)C)c1 [PROBUCOL] | Not Active | –
COBALT(II) ACETYLACETONATE | Not Active | Not Active
INSULIN HUMAN | Not Active | Not Active
POLYVINYL ALCOHOL | Not Active | Not Active

Tested on: not listed separately
Assay: DRUGMATRIX: Phorbol Ester radioligand binding (ligand: [3H] PDBu)
Format: cell membranes, Mus musculus, ICR, Brain, Membrane
Conditions: Not Active = under 50% inhibition at 10 µM

Compound | IC50 | Ki
COc1ccc2cc(CCC(C)=O)ccc2c1 [NABUMETONE] | Not Active | Not Active
O=C(O)c1cccnc1 [NIACIN] | Not Active | Not Active
CNC(=C[N+](=O)[O-])NCCSCc1csc(CN(C)C)n1 [NIZATIDINE] | Not Active | Not Active
C[C@]12C/C(=C/O)C(=O)C[C@@H]1CC[C@@H]1[C@@H]2CC[C@@]2(C)[C@H]1CC[C@]2(C)O [OXYMETHOLONE] | Not Active | Not Active
CC(C)(CO)C(O)C(=O)NCCCO (stereo unspecified) [PANTHENOL] | Not Active | Not Active
COc1ccc(Cc2nccc3cc(OC)c(OC)cc23)cc1OC [PAPAVERINE] | Not Active | Not Active
OCCN1CCN(CCCN2c3ccccc3Sc3ccc(Cl)cc32)CC1 [PERPHENAZINE] | Not Active | Not Active
CCCCC1C(=O)N(c2ccccc2)N(c2ccccc2)C1=O [PHENYLBUTAZONE] | Not Active | Not Active
Cc1cccc(Nc2cc(Cl)nc(SCC(=O)O)n2)c1C [PIRINIXIC ACID] | Not Active | Not Active
CC[C@H](C)C(=O)O[C@H]1C[C@H](O)C=C2C=C[C@H](C)[C@H](CC[C@@H](O)C[C@@H](O)CC(=O)O)[C@H]21 [PRAVASTATIN] | Not Active | Not Active
CC(C)(Sc1cc(C(C)(C)C)c(O)c(C(C)(C)C)c1)Sc1cc(C(C)(C)C)c(O)c(C(C)(C)C)c1 [PROBUCOL] | Not Active | Not Active
COBALT(II) ACETYLACETONATE | Not Active | Not Active
INSULIN HUMAN | Not Active | Not Active
POLYVINYL ALCOHOL | Not Active | Not Active

Target: Platelet-activating factor receptor (Homo sapiens, UniProt P25105); note: in other assays of this panel Not Active means under 50% inhibition at 10 µM
Assay: biochemical
Format: tissue-based
Conditions: platelet

Chain of Platelet-activating factor receptor (P25105 whole entry): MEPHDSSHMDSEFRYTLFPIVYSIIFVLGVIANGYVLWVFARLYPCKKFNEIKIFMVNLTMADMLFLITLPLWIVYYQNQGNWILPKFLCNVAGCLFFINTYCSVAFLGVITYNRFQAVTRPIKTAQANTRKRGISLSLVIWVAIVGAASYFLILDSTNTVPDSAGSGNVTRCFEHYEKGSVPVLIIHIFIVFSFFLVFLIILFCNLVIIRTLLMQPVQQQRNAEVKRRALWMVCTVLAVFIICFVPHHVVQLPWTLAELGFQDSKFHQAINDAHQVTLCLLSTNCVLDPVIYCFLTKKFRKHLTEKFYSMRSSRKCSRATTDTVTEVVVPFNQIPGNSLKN

Compound | IC50 | Ki
COc1ccc2cc(CCC(C)=O)ccc2c1 [NABUMETONE] | Not Active | –
O=C(O)c1cccnc1 [NIACIN] | Not Active | –
CNC(=C[N+](=O)[O-])NCCSCc1csc(CN(C)C)n1 [NIZATIDINE] | Not Active | –
C[C@]12C/C(=C/O)C(=O)C[C@@H]1CC[C@@H]1[C@@H]2CC[C@@]2(C)[C@H]1CC[C@]2(C)O [OXYMETHOLONE] | Not Active | –
CC(C)(CO)C(O)C(=O)NCCCO (stereo unspecified) [PANTHENOL] | Not Active | –
COc1ccc(Cc2nccc3cc(OC)c(OC)cc23)cc1OC [PAPAVERINE] | Not Active | –
OCCN1CCN(CCCN2c3ccccc3Sc3ccc(Cl)cc32)CC1 [PERPHENAZINE] | Not Active | –
CCCCC1C(=O)N(c2ccccc2)N(c2ccccc2)C1=O [PHENYLBUTAZONE] | Not Active | –
Cc1cccc(Nc2cc(Cl)nc(SCC(=O)O)n2)c1C [PIRINIXIC ACID] | Not Active | –
CC[C@H](C)C(=O)O[C@H]1C[C@H](O)C=C2C=C[C@H](C)[C@H](CC[C@@H](O)C[C@@H](O)CC(=O)O)[C@H]21 [PRAVASTATIN] | Not Active | –
CC(C)(Sc1cc(C(C)(C)C)c(O)c(C(C)(C)C)c1)Sc1cc(C(C)(C)C)c(O)c(C(C)(C)C)c1 [PROBUCOL] | Not Active | –
COBALT(II) ACETYLACETONATE | Not Active | Not Active
INSULIN HUMAN | Not Active | Not Active
POLYVINYL ALCOHOL | Not Active | Not Active

Target: T1, Neutrophil elastase (Homo sapiens, UniProt P08246);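 note: inhibition of neutrophil elastase enzyme activity, measured with a p-nitroanilide-linked peptide substrate; in other assays of this panel Not Active means under 50% inhibition at 10 µM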
T1 sequence (P08246 whole entry): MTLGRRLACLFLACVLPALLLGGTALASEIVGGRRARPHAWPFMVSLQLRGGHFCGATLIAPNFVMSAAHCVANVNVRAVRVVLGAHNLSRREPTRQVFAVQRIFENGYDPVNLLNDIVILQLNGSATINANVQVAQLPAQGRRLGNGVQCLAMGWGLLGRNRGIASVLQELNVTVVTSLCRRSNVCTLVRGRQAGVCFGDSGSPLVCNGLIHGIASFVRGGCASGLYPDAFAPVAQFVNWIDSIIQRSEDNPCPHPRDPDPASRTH
Assay: not given
Format: tissue-based
Conditions: not given

Compound | IC50 | Ki
COc1ccc2cc(CCC(C)=O)ccc2c1 [NABUMETONE] | Not Active | –
O=C(O)c1cccnc1 [NIACIN] | Not Active | –
CNC(=C[N+](=O)[O-])NCCSCc1csc(CN(C)C)n1 [NIZATIDINE] | Not Active | –
C[C@]12C/C(=C/O)C(=O)C[C@@H]1CC[C@@H]1[C@@H]2CC[C@@]2(C)[C@H]1CC[C@]2(C)O [OXYMETHOLONE] | Not Active | –
CC(C)(CO)C(O)C(=O)NCCCO (stereo unspecified) [PANTHENOL] | Not Active | –
COc1ccc(Cc2nccc3cc(OC)c(OC)cc23)cc1OC [PAPAVERINE] | Not Active | –
OCCN1CCN(CCCN2c3ccccc3Sc3ccc(Cl)cc32)CC1 [PERPHENAZINE] | Not Active | –
CCCCC1C(=O)N(c2ccccc2)N(c2ccccc2)C1=O [PHENYLBUTAZONE] | Not Active | –
Cc1cccc(Nc2cc(Cl)nc(SCC(=O)O)n2)c1C [PIRINIXIC ACID] | Not Active | –
CC[C@H](C)C(=O)O[C@H]1C[C@H](O)C=C2C=C[C@H](C)[C@H](CC[C@@H](O)C[C@@H](O)CC(=O)O)[C@H]21 [PRAVASTATIN] | Not Active | –
CC(C)(Sc1cc(C(C)(C)C)c(O)c(C(C)(C)C)c1)Sc1cc(C(C)(C)C)c(O)c(C(C)(C)C)c1 [PROBUCOL] | Not Active | –
COBALT(II) ACETYLACETONATE | Not Active | Not Active
INSULIN HUMAN | Not Active | Not Active
POLYVINYL ALCOHOL | Not Active | Not Active
